This note sets out measurements from article PMC7404261 (2020).

Structures are written as SMILES.

Assay [1] deals with ssDNA-G4-Fw (DNA, G4) CGGGAAAAGGCGCGCGGAAGGGGT
The assay can be described thus: ThT fluorescence titration. The settings on record: Na+ (PBS), ThT 3 µM, ODN 0-6 µM, 491 nm, fitted to 1:1 model, unit not given.

Assay [2] concerns RNA-G4 (RNA, G4) GGGAAAAGGCGCGCGGAAGGGG
The assay is described as follows: ThT fluorescence titration. Conditions: Na+ (PBS), ThT 3 µM, ODN 0-6 µM, 491 nm, fitted to 1:1 model, unit not given.

Turning to `Cc1ccc2c(c1)sc(-c1ccc(N(C)C)cc1)[n+]2C`, the association constant was 2.72 × 10^6 in assay [1] and 2.90 × 10^6 in assay [2].
